For one series, the system named is FGFR. Briefly: FGF-induced DNA synthesis (BrdU incorporation) in 3T3/EGFRc7 cells. The class given is cell-based. The procedure:
(§1) The following example illustrates the ability of the compounds of the invention to inhibit FGFR-stimulated and PDGFR-stimulated DNA synthesis in cells. DNA synthesis is required for many of the activities of FGFP and PDGFR including, but not limited to, cell proliferation. Uridine is added in one set of samples to overcome any contribution made by inhibition of DHOD and just evaluate the inhibition of PDGFR or FGFR signaling. (See Greene, et al., Biochem. Pharmacol., 50(6):861 (1995), Nair, et al., Immunology Letters, 47:171 (1995)).
(§2) (1) EGF: mouse EGF, 201; Toyobo,Co., Ltd. Japan; PDGF, Boehringer Mannheim, Germany; FGF, Gibco.
(§3) (2) BrdU Labeling Reagent: 10 mM, in PBS (pH7.4) Cat. No. 1 647 229, Boehringer Mannheim, Germany.
(§4) (3) FixDenat: fixation solution (ready to use), Cat. No. 1 647 229, Boehringer Mannheim, Germany.
(§5) (4) Anti-BrdU-POD: mouse monoclonal antibody conjugated with peroxidase, Cat. No. 1 647 229, Boehringer Mannheim, Germany.
(§6) (5) TMB Substrate Solution: tetramethylbenzidine (TMB), ready to use, Cat. No. 1 647 229, Boehringer Mannheim, Germany.
(§7) (6) PBS Washing Solution: 1×phosphate buffered saline, pH 7.4
(§8) (7) Albumin, Bovine (BSA): fraction V powder; A-8551, Sigma Chemical Co., USA.
(§9) (8) NIH3T3 clone C7 (3T3/EGFRc7)(Honegger et al., Cell 51:199-209, 1987)) engineered to over-express human EGF receptor.
(§10) These cells natively express FGFR and PDGFR.
(§11) (1) 3T3/EGFRc7 cells were seeded at 8000 cells/well in DMEM, 10% CS, 2 mM Gln in a 96 well plate. Cells are incubated overnight at 37 degrees C. in 5% CO2.
(§12) (2) After 24 hours, the cells were washed with PBS, and then serum starved in serum free medium (0%CS DMEM with 0.1% BSA) for 24 hours.
(3) On day 3, ligand (2n EGF or 1.5 nM FGF or 3.8 nM PDGF) prepared in DMEM with 0.1% BSA and 30 μM (final concentration) uridine) and test compound was added to the cells simultaneously.
The negative control wells received serum free DMEM with 0.1% BSA only; the positive control cells received ligand but no test compound. Test compound was prepared in serum free DMEM with ligand in a 96 well plate, and serially diluted for 7 test concentrations.
(4) After 20 hours of ligand activation, diluted BrdU labeling reagent (1:100 in DMEM, 0.1% BSA) was added and the cells were incubated with BrdU (final concentration=10 μM) for 1.5 hours.
(5) After incubation with labeling reagent, the medium was removed by decanting and tapping the inverted plate on a paper towel. FixDenat solution was added (50 μl/well) and the plates incubated at room temperature for 45 minutes on a plate shaker.
(6) The FixDenat solution was thoroughly removed by decanting and tapping the inverted plate on a paper towel. Milk is added (5% dehydrated milk in PBS, 200 μl/well) as a blocking solution and the plate was incubated for 30 minutes at room temperature on a plate shaker.
(7) The blocking solution was removed by decanting and the wells were washed once with PBS. Anti-BrdU-POD solution (1:100 dilution in PBS, 1% BSA) was added (100 μl/well) and the plate was incubated for 90 minutes at room temperature on a plate shaker.
(8) The antibody conjugate was thoroughly removed by decanting and rinsing the wells 5 times with PBS, and the plate dried by inverting and tapping on a paper towel.
(9) TMB substrate solution was added (100 μl/well) and incubated for 20 minutes at room temperature on a plate shaker until color development was sufficient for photometric detection.
(§13) (10) The absorbance of the samples was measured at 410 nm (in “dual wavelength” mode with a filter reading at 490 nm, as a reference wavelength) on a Dynatech ELISA plate reader.
Background: Incorporation of labelled thymidine or its analogues reports DNA synthesis.

For the next series, the target named is T1, human EGF receptor (Homo sapiens, UniProt P00533).
T1 construct: expressed in transfected cells; host or cells: NIH3T3 clone C7 (3T3/EGFRc7)
T1 sequence (P00533 25-1210): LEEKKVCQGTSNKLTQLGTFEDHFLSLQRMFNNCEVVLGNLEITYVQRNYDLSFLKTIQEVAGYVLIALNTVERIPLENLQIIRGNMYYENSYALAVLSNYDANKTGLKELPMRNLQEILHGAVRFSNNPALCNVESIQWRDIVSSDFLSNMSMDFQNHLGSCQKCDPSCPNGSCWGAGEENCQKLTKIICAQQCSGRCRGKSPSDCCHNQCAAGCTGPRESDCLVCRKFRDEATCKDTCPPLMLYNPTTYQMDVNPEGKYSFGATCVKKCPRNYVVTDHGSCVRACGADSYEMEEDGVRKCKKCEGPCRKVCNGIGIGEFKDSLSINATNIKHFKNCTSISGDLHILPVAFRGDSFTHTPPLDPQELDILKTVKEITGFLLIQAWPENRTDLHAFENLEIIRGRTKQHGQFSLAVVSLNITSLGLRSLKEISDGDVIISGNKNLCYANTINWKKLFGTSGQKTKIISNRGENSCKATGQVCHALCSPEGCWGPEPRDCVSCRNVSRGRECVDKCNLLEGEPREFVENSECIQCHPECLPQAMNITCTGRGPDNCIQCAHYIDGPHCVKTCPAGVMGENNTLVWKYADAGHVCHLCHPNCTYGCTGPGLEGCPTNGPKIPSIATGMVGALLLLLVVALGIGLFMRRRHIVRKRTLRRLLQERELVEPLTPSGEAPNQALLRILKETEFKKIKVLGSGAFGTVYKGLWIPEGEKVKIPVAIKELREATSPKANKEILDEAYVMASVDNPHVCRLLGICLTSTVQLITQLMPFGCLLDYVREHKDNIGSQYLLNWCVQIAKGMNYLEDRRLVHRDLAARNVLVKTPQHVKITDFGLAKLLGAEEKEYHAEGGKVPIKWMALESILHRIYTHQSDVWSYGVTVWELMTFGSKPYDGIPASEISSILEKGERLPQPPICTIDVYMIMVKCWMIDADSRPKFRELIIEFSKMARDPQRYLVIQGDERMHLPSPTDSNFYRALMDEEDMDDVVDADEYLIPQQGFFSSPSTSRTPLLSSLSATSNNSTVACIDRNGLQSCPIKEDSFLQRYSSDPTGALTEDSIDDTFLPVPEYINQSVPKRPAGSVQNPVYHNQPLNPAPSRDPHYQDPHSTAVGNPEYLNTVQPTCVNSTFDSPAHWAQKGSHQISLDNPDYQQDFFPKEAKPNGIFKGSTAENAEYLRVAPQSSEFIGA
Briefly: EGF-induced DNA synthesis (BrdU incorporation) in 3T3/EGFRc7 cells. The format is cell-based. The settings on record: read-out: EGF-induced (inhibition of DNA synthesis). Here is the method: as §1, §2, §3, §4, §5, §6, §7, §8, §9, §10, §11, §12
(§14) (3) On day 3, ligand (2n EGF or 1.5 nM FGF or 3.8 nM PDGF) prepared in DMEM with 0.1% BSA and 30 μM (final concentration) uridine) and test compound was added to the cells simultaneously. […]
as §13

The subject of the next series is C6 cells (glioblastoma). Briefly: Subcutaneous xenograft experiment, inhibition of tumor growth in vivo. As to conditions: for inhibition (% of control): 30 mg/kg/day IP in DMSO, tumor volume. The procedure:
Female athymic mice (BALB/c, nu/nu) were obtained from Simonsen Laboratories (Gilroy, Calif.). All animals were maintained under clean-room conditions in Micro-isolator cages with Alpha-dri bedding. They received sterile rodent chow and water ad libitum.
Cell lines were grown in Ham's F10 plus 5% fetal bovine serum (FBS) and 2 mM glutamine (GLN). All cell culture media, glutamine, and fetal bovine serum were purchased from Gibco Life Technologies (Grand Island, N.Y.) unless otherwise specified. All cells were grown in a humid atmosphere of 90-95% air and 5-10% CO2 at 37° C. All cell lines were routinely subcultured twice a week and were negative for mycoplasma as determined by the Mycotect method (Gibco).
Cells were harvested at or near confluency with 0.05% Trypsin-EDTA and pelleted at 450×g for 10 min. Pellets were resuspended in sterile PBS or media (without FBS) and the cells were implanted into the hindflank of the mice (8-10 mice per group 3×10^6 cells/animal). Tumor growth was measured over 3 weeks using venier calipers. Tumor volumes were calculated as a product of length×width×height unless otherwise indicated. P values were calculated using the Students' t-test. Cmpd. 1 in 50 μL excipient (DMSO) was delivered by IP bolus injection daily.

The test system of the next series is PDGFR. Briefly: PDGF-induced DNA synthesis (BrdU incorporation) in 3T3/EGFRc7 cells. As to conditions: 3.8 nM PDGF, read-out: PDGF-induced (inhibition of DNA synthesis). The format is cell-based. Here is the method: as §1, §2, §3, §4, §5, §6, §7, §8, §9, §10, §11, §12, §14, §13
[1] abbreviates: FGF induced DNA synthesis, with added uridine (30 μM), read-out: IC50 + uridine.
Setting [2] is: FGF induced DNA synthesis, without added uridine, read-out: IC50 − uridine.
Where [3] appears, read: 1.5 nM FGF, Table 2 experiment, read-out: FGF-induced (inhibition of DNA synthesis).

SMILES strings stand for the structures. Read-outs that look alike come from different tables or passages of the source. Bounds are passed on as bounds.

With `C/C(O)=C(\C#N)C(=O)Nc1ccc(C(F)(F)F)cc1` [A771726], the IC50 was above 100 µM with FGFR (setting [1]) and 20 µM in the series with FGFR (setting [2]).
For the molecule `Cc1c(-c2ccc(-c3ccccc3F)cc2)nc2ccc(F)cc2c1C(=O)O` [brequinar], the IC50 with FGFR (setting [1]) was above 100 µM; in the series on FGFR (setting [2]), 1.6 µM.
Regarding `Cc1nocc1C(=O)Nc1ccc(C(F)(F)F)cc1` [cmpd. 1, 3-Methyl-4-[4-(trifluoromethyl)phenyl-aminocarbonyl]isoxazole], the IC50 in the series on FGFR (setting [3]) is 65 µM; in the series with FGFR (setting [1]) it was 70 µM; with FGFR (setting [2]) it was 85 µM; at human EGF receptor, above 100 µM; with PDGFR, 90 µM. In addition, in the series with C6 cells (glioblastoma) (30 mg/kg/day IP, xenograft mice), the “toxic effect at the dose tested” value is “no toxic effect”. For the same molecule, the mortality was found to be 0 in the series with C6 cells (glioblastoma) (Day 8, 30 mg/kg/day IP); 0 in the series on C6 cells (glioblastoma) (Day 10, 30 mg/kg/day IP); 0 in the series on C6 cells (glioblastoma) (Day 13, 30 mg/kg/day IP); 0 in the series with C6 cells (glioblastoma) (Day 15, 30 mg/kg/day IP); 0 in the series with C6 cells (glioblastoma) (Day 17, 30 mg/kg/day IP); 0 in the series on C6 cells (glioblastoma) (Day 20, 30 mg/kg/day IP). Further, the “inhibition (% of control)” value in the series with C6 cells (glioblastoma) (Day 8) is recorded as 34 % of control; with C6 cells (glioblastoma) (Day 10), 42 % of control; in the series on C6 cells (glioblastoma) (Day 13), 48 % of control; in the series on C6 cells (glioblastoma) (Day 15), 47 % of control; with C6 cells (glioblastoma) (Day 17) it was 50 % of control; in the series with C6 cells (glioblastoma) (Day 20) it was 52 % of control.
For the molecule `Cc1n[nH]cc1C(=O)Nc1ccc(C(F)(F)F)cc1` [cmpd. 2, 3-Methyl-4-[4-(trifluoromethyl)phenylaminocarbonyl]pyrazole], the IC50 with FGFR (setting [3]) was above 100 µM; on human EGF receptor it was above 100 µM; in the series on PDGFR, 95 µM.
Consider `Cc1noc(C)c1C(=O)Nc1ccc(C(F)(F)F)cc1` [cmpd. 21, 3,5-Dimethyl-4-[4-(trifluoromethyl)phenylaminocarbonyl]isoxazole], for which the IC50 in the series on FGFR (setting [3]), at human EGF receptor and in the series on PDGFR was above 100 µM throughout.
On to `Cc1oncc1C(=O)Nc1ccc(C(F)(F)F)cc1` [leflunomide, 4-(-(4′-trifluoromethylphenyl)carboxamido)-5-methyl-isoxazole], for which the results for the IC50 in the series on FGFR (setting [1]) and with FGFR (setting [2]) were 80 µM and 20 µM, respectively.

The values above are taken from patent US6649635B2, “Heteroarylcarboxamide compounds active against protein tyrosine kinase related disorders” (Sugen, Inc., priority 1997, dated 2003).
